Source: publication PMC6151740, “Pharmacokinetics, Tissue Distribution, and Elimination of Three Active Alkaloids in Rats after Oral Administration of the Effective Fraction of Alkaloids from Ramulus Mori, an Innovative Hypoglycemic Agent” (Molecules : A Journal of Synthetic Chemistry and Natural …, 2017)
Values joined by “and” are separate entries in the source; they are usually repeats but may differ in a detail not shown here. Equal values may be shown once.

Experiments:
[1] = Excretion into urine, feces and bile in rats after oral SZ–A; format: in vivo; settings: rat, SZ–A 40 mg/kg p.o.; for dose excreted: bile, po, within 32 h, read-out: recovery in bile (% of dose); for cumulative excretion into feces (% of dose) / cumulative excretion into urine (% of dose): over a 24 h period, n = 5
Protocol: Five rats were kept in the metabolic cages with free access to water and food 2 h post dose. Urine was collected before dosing and at 0–4, 4–8, 8–24, 24–36, and 36–48 h, and feces was simultaneously collected before dosing and at 0–24, 24–36, and 36–48 h after oral dosing of SZ–A (40 mg/kg). Feces samples were dried and grinded into powder, then homogenized with normal saline solution (1:9, w/v). Additionally, the bile duct of rats under ether anesthesia were cannulated with a PE-10 tube (Portex Ltd., Kent, UK). Bile was collected before dosing and at 0–1, 1–2, 2–4, 4–6, 6–10, 10–20, 20–24, 24–28, and 28–32 h following oral administration of SZ–A (40 mg/kg). All urine, feces, and bile samples were stored at −20 °C until LC-MS/MS analysis.

[2] = test system: rat caecal microbiota cultures; test: In vitro incubation of SZ–A with rat caecal microbiota cultures; format: in vitro ADME; settings: 2 h
Protocol: (§1) Pooled rat intestinal homogenate from six males was prepared using a tissue homogenizer with ice cold normal saline solution at a proportion of 1:3 (w/v). SZ–A was incubated with rat intestinal homogenate (5 mg protein/mL) with/without a NADPH-generating system (0.011 M β-NADP, 0.1 M glucose 6-phosphate, 10 U/mL glucose-6-phosphate dehydrogenase) in a 37 °C water bath for 120 min. Meanwhile, caecal content was collected and mixed with anaerobic medium (1:30, w/v) to prepare the cultures under nitrogen atmosphere at 37 °C for 120 min. SZ–A and rat caecal microbiota cultures were incubated at a total volume of 200 μL with the boiled samples as the negative control, concomitantly. The incubation was stopped at 2 h by adding two volumes of methanol–acetonitrile (1:3, v/v). Triplicate supernatants were taken by centrifugation at 18,880× g for 5 min and stored at −20 °C until LC-MS/MS analysis. The results were expressed as the percentage of the concentration at 0 min.

[3] = In vitro incubation of SZ–A with rat intestinal homogenate; format: in vitro ADME; settings: SZ–A 10.87 μg/mL, with/without NADPH generation, 37 °C, 120 min
Protocol: as §1

[4] = 4.35 μg/mL SZ–A (10 μM DNJ, 1.9 μM FGM, 1.6 μM DAB)
[5] = 10.87 μg/mL SZ–A (25 μM DNJ, 4.7 μM FGM, 3.9 μM DAB)

OC[C@H]1NC[C@H](O)[C@@H](O)[C@@H]1O [DNJ, 1-deoxynojirimycin]
dose excreted [1]: 0.29% | cumulative excretion into feces (% of dose) [1]: 43.97% | cumulative excretion into urine (% of dose) [1]: 65.32% | percentage of initial amount after incubation with rat gut microbiota cultures [2, 4]: 110.6% | percentage of initial amount after incubation with rat gut microbiota cultures [2, 5]: 115.5% | amount of alkaloid after incubation in rat intestinal homogenate [3]: not changed significantly

OC[C@H]1NC[C@@H](O)[C@@H]1O [DAB, 1,4-dideoxy-1,4-imino-D-arabinitol]
dose excreted [1]: 0.35% | cumulative excretion into feces (% of dose) [1]: 34.05% | cumulative excretion into urine (% of dose) [1]: 52.91% | percentage of initial amount after incubation with rat gut microbiota cultures [2, 4]: 182.2% | percentage of initial amount after incubation with rat gut microbiota cultures [2, 5]: 159.3% | amount of alkaloid after incubation in rat intestinal homogenate [3]: not changed significantly

OC[C@H]1NCC[C@@H](O)[C@@H]1O [FGM, fagomine]
dose excreted [1]: 0.5% | total excretive amount (urine and feces) relative to the oral dose [1]: about two-fold | cumulative excretion into urine (% of dose) [1]: 65.36% | cumulative excretion into feces (% of dose) ([1]; 40 mg/kg): 131.4% and 131.41% | percentage of initial amount after incubation with rat gut microbiota cultures [2, 4]: 152.8% | percentage of initial amount after incubation with rat gut microbiota cultures [2, 5]: 172.0% | amount of alkaloid after incubation in rat intestinal homogenate [3]: not changed significantly
